Results: patent US8748632B2, “Positive allosteric modulators of group II mGluRs” (Sanford-Burnham Medical Research Institute, priority 2010, dated 2014)

Biological target: mGluR2 (Rattus norvegicus, UniProt P31421)
Assay: mGluR2 PAM (positive allosteric modulator) EC50
Assay type: cell-based
Settings: positive allosteric modulator activity

Chain of mGluR2 (P31421 19-872): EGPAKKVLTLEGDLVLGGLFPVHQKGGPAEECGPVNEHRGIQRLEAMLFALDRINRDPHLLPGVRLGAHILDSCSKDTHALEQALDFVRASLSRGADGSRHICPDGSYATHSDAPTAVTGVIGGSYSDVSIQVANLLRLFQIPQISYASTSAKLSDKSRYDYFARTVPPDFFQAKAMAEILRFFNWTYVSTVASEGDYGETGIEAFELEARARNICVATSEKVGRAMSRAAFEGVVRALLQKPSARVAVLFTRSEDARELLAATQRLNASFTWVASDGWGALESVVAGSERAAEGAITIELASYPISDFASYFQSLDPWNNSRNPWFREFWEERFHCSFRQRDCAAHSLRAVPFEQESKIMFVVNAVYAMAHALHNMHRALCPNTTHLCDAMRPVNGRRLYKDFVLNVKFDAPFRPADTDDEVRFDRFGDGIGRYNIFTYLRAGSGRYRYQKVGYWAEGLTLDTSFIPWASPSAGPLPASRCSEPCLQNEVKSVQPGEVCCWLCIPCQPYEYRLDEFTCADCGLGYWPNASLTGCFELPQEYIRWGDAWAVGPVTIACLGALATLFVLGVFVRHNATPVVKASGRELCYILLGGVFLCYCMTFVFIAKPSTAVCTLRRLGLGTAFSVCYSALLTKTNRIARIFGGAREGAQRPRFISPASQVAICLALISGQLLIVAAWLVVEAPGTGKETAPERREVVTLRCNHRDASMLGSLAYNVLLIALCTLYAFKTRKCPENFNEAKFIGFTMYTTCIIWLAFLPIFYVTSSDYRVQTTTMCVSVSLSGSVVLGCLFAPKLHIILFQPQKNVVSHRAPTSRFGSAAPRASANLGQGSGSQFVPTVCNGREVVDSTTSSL

O=C(O)c1cc(-c2cccc(COc3ccc4c(=O)n(C5CCCCC5)oc4c3)c2)ccc1Cl [Example 61, 4-Chloro-3′-((2-cyclohexyl-3-oxo-2,3-dihydrobenzo[d]isoxazol-6-yloxy)methyl)biphenyl-3-carboxylic acid]
mGluR2 PAM EC50(μM): desensitizes
